# From patent publication US11352339B2 (MISSION THERAPEUTICS LIMITED, priority 2016, dated 2022)
# Molecular target: USP30 (Homo sapiens (Human), UniProt Q70CQ3)
# Experiment: USP30 Biochemical IC50 Assay
# Details: fluorescence polarisation, TAMRA labelled peptide linked to ubiquitin; 30 min pre-incubation, read after 2 h; read-out: IC50 range
# Procedure, shortened: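 Fluorescence polarisation cleavage assay, duplicate wells: substrate is a TAMRA peptide joined to ubiquitin by an iso-peptide bond (50 nM), added after 30 min room-temperature compound–enzyme incubation. Readings at 540/590 nm immediately and at 2 h.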
# Chain of USP30 (Q70CQ3 57-517): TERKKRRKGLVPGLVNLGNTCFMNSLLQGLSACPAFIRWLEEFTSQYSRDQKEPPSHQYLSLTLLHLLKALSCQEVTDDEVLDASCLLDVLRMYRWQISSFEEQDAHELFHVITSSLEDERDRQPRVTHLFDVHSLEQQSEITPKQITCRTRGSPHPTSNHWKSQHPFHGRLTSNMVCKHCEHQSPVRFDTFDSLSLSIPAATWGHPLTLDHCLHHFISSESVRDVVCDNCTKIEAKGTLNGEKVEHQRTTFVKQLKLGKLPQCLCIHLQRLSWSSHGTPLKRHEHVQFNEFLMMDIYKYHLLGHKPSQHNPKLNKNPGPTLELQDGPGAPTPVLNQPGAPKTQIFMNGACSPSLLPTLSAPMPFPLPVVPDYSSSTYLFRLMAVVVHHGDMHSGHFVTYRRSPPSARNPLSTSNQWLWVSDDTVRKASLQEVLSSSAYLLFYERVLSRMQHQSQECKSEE
row,Compound,IC50 [µM]
1,"N#CN1CCCC1c1noc(-c2cccc(-c3ccc([N+](=O)[O-])cc3)c2)n1 (stereo not drawn) [Example 157, 2-(5-(4′-Nitro-[1,1′-biphenyl]-3-yl)-1,2,4-oxadiazol-3-yl)pyrrolidine-1-carbonitrile]",< 0.1
2,"COC(=O)c1ccccc1-c1cccc(-c2nc(C3CCCN3C#N)no2)c1 (stereo not drawn) [Example 156, Methyl 3′-(3-(1-cyanopyrrolidin-2-yl)-1,2,4-oxadiazol-5-yl)-[1,1′-biphenyl]-2-carboxylate]",0.1 to 1
3,"N#Cc1ccc(-c2nccc(-c3nc([C@@H]4CCCN4C#N)no3)n2)cn1 [Example 201, (S)-5-(4-(3-(1-Cyanopyrrolidin-2-yl)-1,2,4-oxadiazol-5-yl)pyrimidin-2-yl)picolinonitrile]",0.1 to 1
4,"CCc1cccc(-c2ccc3nc([C@@H]4CCCN4C#N)oc3c2)c1 [Example 130, (S)-2-(6-(3-Ethylphenyl)benzo[d]oxazol-2-yl)pyrrolidine-1-carbonitrile]",0.1 to 1
5,"N#Cc1cnn(-c2cc(-c3nc([C@@H]4CCCN4C#N)no3)ccn2)c1 [Example 193, (S)-1-(4-(3-(1-Cyanopyrrolidin-2-yl)-1,2,4-oxadiazol-5-yl)pyridin-2-yl)-1H-pyrazole-4-carbonitrile]",1 to 10
6,"Cn1cc(-c2cccc(-c3nc(C4CCCN4C#N)no3)c2)cn1 (stereo not drawn) [Example 148, 2-(5-(3-(1-Methyl-1H-pyrazol-4-yl)phenyl)-1,2,4-oxadiazol-3-yl)pyrrolidine-1-carbonitrile]",1 to 10
7,"N#Cc1ccc(-c2cnc3[nH]c(C4CCN(C#N)C4)nc3c2)cc1 (stereo not drawn) [Example 84, 3-(6-(4-Cyanophenyl)-3H-imidazo[4,5-b]pyridin-2-yl)pyrrolidine-1-carbonitrile]",0.1 to 1
8,"N#CN1CCC(c2[nH]nc(-c3cccc(-c4ccccc4)c3)c2F)C1 (single isomer, unassigned) [Example 16, 3-(3-([1,1′-Biphenyl]-3-yl)-4-fluoro-1H-pyrazol-5-yl)pyrrolidine-1-carbonitrile]",0.1 to 1
9,"N#CN1CCC(c2n[nH]c(-c3ccnc(-c4ccccc4)c3)n2)C1 (stereo not drawn) [Example 199, 3-(3-(2-Phenylpyridin-4-yl)-1H-1,2,4-triazol-5-yl)pyrrolidine-1-carbonitrile]",0.1 to 1
10,"N#Cc1cc(-c2ccnc(-c3nc([C@@H]4CCCN4C#N)no3)c2)ccn1 [Example 182, (S)-2′-(3-(1-Cyanopyrrolidin-2-yl)-1,2,4-oxadiazol-5-yl)-[4,4′-bipyridine]-2-carbonitrile]",0.1 to 1
11,"N#Cc1cccc(-c2ccc3oc([C@@H]4CCCN4C#N)nc3c2)n1 [Example 127, (S)-6-(2-(1-Cyanopyrrolidin-2-yl)benzo[d]oxazol-5-yl)picolinonitrile]",1 to 10
12,"N#CN1CCC(c2noc(-c3ccc(-c4ccccc4)[nH]c3=O)n2)C1 (stereo not drawn) [Example 52, 3-(5-(2-Oxo-6-phenyl-1,2-dihydropyridin-3-yl)-1,2,4-oxadiazol-3-yl)pyrrolidine-1-carbonitrile]",1 to 10
13,"N#CN1CCC[C@H]1c1nc2cc(-c3cccc([N+](=O)[O-])c3)ccc2o1 [Example 136, (S)-2-(5-(3-Nitrophenyl)benzo[d]oxazol-2-yl)pyrrolidine-1-carbonitrile]",0.1 to 1
14,"N#CN1CCC(c2[nH]nc(-c3cccc(-c4ccccc4)c3)c2F)C1 (single isomer, unassigned) [Example 17, 3-(3-([1,1′-Biphenyl]-3-yl)-4-fluoro-1H-pyrazol-5-yl)pyrrolidine-1-carbonitrile]",< 0.1
15,"N#CN1CCC(c2nc3cc(-c4cn[nH]c4)cnc3[nH]2)C1 (stereo not drawn) [Example 88, 3-(6-(1H-Pyrazol-4-yl)-3H-imidazo[4,5-b]pyridin-2-yl)pyrrolidine-1-carbonitrile]",1 to 10
16,"N#CN1CCC(c2cccc(-c3ccccc3)c2N)C1 (stereo not drawn) [Example 123, 3-(2-Amino-[1,1′-biphenyl]-3-yl)pyrrolidine-1-carbonitrile]",0.1 to 1
17,"N#CN1CCC(c2nnc(-c3ccccn3)[nH]2)C1 (stereo not drawn) [Example 105, 3-(5-(Pyridin-2-yl)-4H-1,2,4-triazol-3-yl)pyrrolidine-1-carbonitrile]",1 to 10
18,"N#Cc1cc(-c2cc(-c3nc([C@@H]4CCCN4C#N)no3)ccn2)ccn1 [Example 181, (S)-4-(3-(1-Cyanopyrrolidin-2-yl)-1,2,4-oxadiazol-5-yl)-[2,4′-bipyridine]-2 carbonitrile]",< 0.1
19,"N#Cc1ccc(-c2cc(-c3nc([C@@H]4CCCN4C#N)no3)ccn2)cc1 [Example 177, (S)-2-(5-(2-(4-Cyanophenyl)pyridin-4-yl)-1,2,4-oxadiazol-3-yl)pyrrolidine-1-carbonitrile]",0.1 to 1
20,"N#CN1CCC(c2nc3ccc(-c4ccc(C(N)=O)cc4)cc3[nH]2)C1 (stereo not drawn) [Example 74, 4-(2-(1-Cyanopyrrolidin-3-yl)-1H-benzo[d]imidazol-6-yl)benzamide]",0.1 to 1
21,"N#Cc1ccc(-c2cc(C3CCN(C#N)C3)[nH]n2)cc1 (stereo not drawn) [Example 2, 3-(3-(4-Cyanophenyl)-1H-pyrazol-5-yl)pyrrolidine-1-carbonitrile]",1 to 10

row,Compound,IC50 [µM]
1,"N#CN1CCC(c2noc(-c3cc(Cl)cc(OC(F)(F)F)c3)n2)C1 (stereo not drawn) [Example 57, 3-(5-(3-Chloro-5-(trifluoromethoxy)phenyl)-1,2,4-oxadiazol-3-yl)pyrrolidine-1-carbonitrile]",0.1 to 1
2,"C[C@H]1CN(C#N)C[C@@H]1c1nc2cc(-c3ccccc3)cnc2[nH]1 (single isomer, unassigned) [Example 103, Trans-3-methyl-4-(6-phenyl-3H-imidazo[4,5-b]pyridin-2-yl)pyrrolidine-1-carbonitrile]",0.1 to 1
3,"N#CN1CCC(c2cc(-c3cccc(-c4ccccc4)n3)[nH]n2)C1 (single isomer, unassigned) [Example 42, 3-(5-(6-Phenylpyridin-2-yl)-1H-pyrazol-3-yl)pyrrolidine-1-carbonitrile]",0.1 to 1
4,"N#CN1CCC(c2cc(-c3cccc(-c4ccccc4)n3)[nH]n2)C1 (stereo not drawn) [Example 37, 3-(5-(6-Phenylpyridin-2-yl)-1H-pyrazol-3-yl)pyrrolidine-1-carbonitrile]",0.1 to 1
5,"N#Cc1cccc(-c2ccnc(-c3nc(C4CCCN4C#N)no3)c2)c1 (stereo not drawn) [Example 172, 2-(5-(4-(3-Cyanophenyl)pyridin-2-yl)-1,2,4-oxadiazol-3-yl)pyrrolidine-1-carbonitrile]",0.1 to 1
6,"N#Cc1cc(F)cc(-c2cccc(-c3nc(C4CCCN4C#N)no3)c2)c1 (stereo not drawn) [Example 163, 2-(5-(3′-Cyano-5′-fluoro-[1,1′-biphenyl]-3-yl)-1,2,4-oxadiazol-3-yl)pyrrolidine-1-carbonitrile]",< 0.1
7,"N#CN1CCCC1c1noc(-c2cccc(-c3cccnc3)c2)n1 (stereo not drawn) [Example 152, 2-(5-(3-(Pyridin-3-yl)phenyl)-1,2,4-oxadiazol-3-yl)pyrrolidine-1-carbonitrile]",0.1 to 1
8,"Cn1c(C2CCN(C#N)C2)nc2cc(-c3ccccc3)cnc21 (stereo not drawn) [Example 101, 3-(3-Methyl-6-phenyl-3H-imidazo[4,5-b]pyridin-2-yl)pyrrolidine-1-carbonitrile]",0.1 to 1
9,N#CN1CCC(c2noc(-c3cccc(-c4ccccc4)c3)n2)C1 (stereo not drawn) [Example 55],< 0.1
10,"N#CN1CCC(c2cc(-c3cccc(-c4ccccc4)c3)no2)C1 (single isomer, unassigned) [Example 118, 3-(3-([1,1′-Biphenyl]-3-yl)isoxazol-5-yl)pyrrolidine-1-carbonitrile]",< 0.1
11,"N#CN1CCC(c2nc3cc(-c4ccccc4)cnc3[nH]2)C1 (stereo not drawn) [Example 83, 3-(6-Phenyl-3H-imidazo[4,5-b]pyridin-2-yl)pyrrolidine-1-carbonitrile]",0.1 to 1
12,"N#Cc1cnn(-c2cccc(-c3nc([C@@H]4CCCN4C#N)no3)c2)c1 [Example 190, (S)-1-(3-(3-(1-Cyanopyrrolidin-2-yl)-1,2,4-oxadiazol-5-yl)phenyl)-1H-pyrazole-4-carbonitrile]",0.1 to 1
13,"N#Cc1cnn(-c2cncc(-c3nc([C@@H]4CCCN4C#N)no3)n2)c1 [Example 202, (S)-1-(6-(3-(1-Cyanopyrrolidin-2-yl)-1,2,4-oxadiazol-5-yl)pyrazin-2-yl)-1H-pyrazole-4-carbonitrile]",0.1 to 1
14,"CNC(=O)c1cccc(-c2cnc3[nH]c(C4CCN(C#N)C4)nc3c2)c1 (stereo not drawn) [Example 89, 3-(2-(1-Cyanopyrrolidin-3-yl)-3H-imidazo[4,5-b]pyridin-6-yl)-N-methylbenzamide]",1 to 10
15,"C[C@H]1CN(C#N)C[C@@H]1c1nc2cc(-c3ccccc3)cnc2[nH]1 (single isomer, unassigned) [Example 102, Trans-3-methyl-4-(6-phenyl-3H-imidazo[4,5-b]pyridin-2-yl)pyrrolidine-1-carbonitrile]",0.1 to 1
16,"N#Cc1ccc(-c2ccnc(-c3nc([C@@H]4CCCN4C#N)no3)c2)cc1 [Example 176, (S)-2-(5-(4-(4-Cyanophenyl)pyridin-2-yl)-1,2,4-oxadiazol-3-yl)pyrrolidine-1-carbonitrile]",0.1 to 1
17,"N#CN1CCC(c2nc3cc(-c4ccncc4)cnc3[nH]2)C1 (single isomer, unassigned) [Example 82, 3-(6-(Pyridin-4-yl)-3H-imidazo[4,5-b]pyridin-2-yl)pyrrolidine-1-carbonitrile]",1 to 10
18,"N#CN1CCC(c2cc(-c3cccc(-c4ccncc4)c3)n[nH]2)C1 (stereo not drawn) [Example 28, 3-(3-(3-(Pyridin-4-yl)phenyl)-1H-pyrazol-5-yl)pyrrolidine-1-carbonitrile]",0.1 to 1
19,"N#CN1CCC(c2cc(-c3ccc(-c4ccccc4)cc3)[nH]n2)C1 (stereo not drawn) [Example 35, 3-(5-([1,1′-Biphenyl]-4-yl)-1H-pyrazol-3-yl)pyrrolidine-1-carbonitrile]",0.1 to 1
20,"CNC(=O)c1cc(-c2ccccc2)cc2oc([C@@H]3CCCN3C#N)nc12 [Example 122, (S)-2-(1-Cyanopyrrolidin-2-yl)-N-methyl-6-phenylbenzo[d]oxazole-4-carboxamide]",10 to 100
21,"N#CN1CCC(c2nnc(-c3ccccc3)[nH]2)C1 (stereo not drawn) [Example 106, 3-(5-Phenyl-4H-1,2,4-triazol-3-yl)pyrrolidine-1-carbonitrile]",1 to 10
